Test results taken from BigSolDB 2.1.

CC1=C(O)C(=O)C(C)O1 (stereo not drawn)
solubility (mole fraction)
Details	278.15 K	283.15 K	288.15 K	293.15 K	298.15 K	303.15 K	308.15 K	313.15 K
in 1,4-dioxane	0.192	0.22	0.248	0.282	0.315	0.357	0.4	0.445
in DMF	0.256	0.281	0.307	0.336	0.368	0.402	0.439	0.479
in acetone	0.127	0.151	0.177	0.209	0.244	0.284	0.329	0.381
in acetonitrile	0.0733	0.0896	0.11	0.134	0.164	0.202	0.248	0.303
in chloroform	0.256	0.281	0.307	0.336	0.368	0.402	0.439	0.479
in cyclohexanone	0.105	0.128	0.155	0.187	0.225	0.269	0.318	0.372
in dichloromethane	0.139	0.16	0.189	0.219	0.254	0.292	0.337	0.386
in isopropanol	0.181	0.211	0.24	0.272	0.309	0.348	0.387	0.435
in methyl acetate	0.139	0.16	0.189	0.219	0.254	0.292	0.337	0.386
in n-propyl acetate	0.139	0.16	0.189	0.219	0.254	0.292	0.337	0.386
in sec-butanol	0.105	0.128	0.155	0.187	0.225	0.269	0.318	0.372
